This passage reports Ki results from patent EP2768830B1, “APOPTOSIS-INDUCING AGENTS FOR THE TREATMENT OF CANCER AND IMMUNE AND AUTOIMMUNE DISEASES” (AbbVie Inc., priority 2011, dated 2013).

As a reminder, the Ki is a measure of affinity in units of concentration, obtained from inhibition or displacement.

GST-Bcl-xL, sequence (Q07817 whole entry): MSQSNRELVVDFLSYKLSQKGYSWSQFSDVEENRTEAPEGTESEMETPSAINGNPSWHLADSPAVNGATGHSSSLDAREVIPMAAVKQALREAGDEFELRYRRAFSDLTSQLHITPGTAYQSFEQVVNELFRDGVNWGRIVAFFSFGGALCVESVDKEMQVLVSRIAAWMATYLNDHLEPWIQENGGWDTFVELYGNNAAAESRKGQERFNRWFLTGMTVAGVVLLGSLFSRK

The experiment has as its target GST-Bcl-xL (Homo sapiens, UniProt Q07817). The note with it: read-out: TR-FRET binding Bcl-xL Ki.
For the compound `CNCCOC1(Cn2ncc(-c3ccc(N4CCc5cccc(C(=O)Nc6nc7ccccc7s6)c5C4)nc3C(=O)O)c2C)CCCC(C)(C)C1` (stereo not drawn) [Example 185, 6-[8-(1,3-benzothiazol-2-ylcarbamoyl)-3,4-dihydroisoquinolin-2(1H)-yl]-3-[1-({3,3-dimethyl-1-[2-(methylamino)ethoxy]cyclohexyl}methyl)-5-methyl-1H-pyrazol-4-yl]pyridine-2-carboxylic acid], the Ki is less than 0.0001 µM.
Then `O=C(Nc1nc2ccccc2s1)c1cccc2c1CN(c1ccc(-c3ccc4c(c3)CCN(Cc3ccccc3)C4)c(C(=O)O)n1)CC2` [Example 133, 6-[8-(1,3-benzothiazol-2-ylcarbamoyl)-3,4-dihydroisoquinolin-2(1H)-yl]-3-(2-benzyl-1,2,3,4-tetrahydroisoquinolin-6-yl)pyridine-2-carboxylic acid], with 0.0009 µM.
With `O=C(Nc1nc2ccccc2s1)c1cccc2c1CN(c1ccc(-c3cnn(Cc4cccc(Cl)c4)c3)c(C(=O)O)n1)CC2` [Example 9, 6-[8-(1,3-benzothiazol-2-ylcarbamoyl)-3,4-dihydroisoquinolin-2(1H)-yl]-3-[1-(3-chlorobenzyl)-1H-pyrazol-4-yl]pyridine-2-carboxylic acid] the figure was 0.006 µM; with `O=C(Nc1nc2ccccc2s1)c1cccc2c1CN(c1ccc(-c3cnn(Cc4c(F)cccc4F)c3)c(C(=O)O)n1)CC2` [Example 55, 6-[8-(1,3-benzothiazol-2-ylcarbamoyl)-3,4-dihydroisoquinolin-2(1H)-yl]-3-[1-(2,6-difluorobenzyl)-1H-pyrazol-4-yl]pyridine-2-carboxylic acid], 0.018 µM.
In the case of `O=C(Nc1nc2ccccc2s1)c1cccc2c1CN(c1ccc(-c3cnn(Cc4ccccc4)c3)c(C(=O)O)n1)CC2` [Example 1, 6-[8-(1,3-benzothiazol-2-ylcarbamoyl)-3,4-dihydroisoquinolin-2(1H)-yl]-3-(1-benzyl-1H-pyrazol-4-yl)pyridine-2-carboxylic acid], the Ki is 0.012 µM.
With `Cc1c(-c2ccc(N3CCc4cccc(C(=O)Nc5nc6ccccc6s5)c4C3)nc2C(=O)O)c(C(=O)O)nn1Cc1ccccc1` [Example 35, 6-[8-(1,3-benzothiazol-2-ylcarbamoyl)-3,4-dihydroisoquinolin-2(1H)-yl]-3-(1-benzyl-3-carboxy-5-methyl-1H-pyrazol-4-yl)pyridine-2-carboxylic acid] the figure was 0.091 µM; with `O=C(Nc1nc2ccccc2s1)c1cccc2c1CN(c1ccc(-c3cnn(Cc4ccccc4Cl)c3)c(C(=O)O)n1)CC2` [Example 25, 6-[8-(1,3-benzothiazol-2-ylcarbamoyl)-3,4-dihydroisoquinolin-2(1H)-yl]-3-[1-(2-chlorobenzyl)-1H-pyrazol-4-yl]pyridine-2-carboxylic acid], 0.008 µM.
With `CN(C)CCOc1ccc(Cn2cc(-c3ccc(N4CCc5cccc(C(=O)Nc6nc7ccccc7s6)c5C4)nc3C(=O)O)cn2)cc1` [Example 6, 6-[8-(1,3-benzothiazol-2-ylcarbamoyl)-3,4-dihydroisoquinolin-2(1H)-yl]-3-(1-{4-[2-(dimethylamino)ethoxy]benzyl}-1H-pyrazol-4-yl)pyridine-2-carboxylic acid] the figure was more than 1 µM.
With `O=C(Nc1nc2ccccc2s1)c1cccc2c1CN(c1ccc(-c3cnn(Cc4ccc(O)cc4)c3)c(C(=O)O)n1)CC2` [Example 4, 6-[8-(1,3-benzothiazol-2-ylcarbamoyl)-3,4-dihydroisoquinolin-2(1H)-yl]-3-[1-(4-hydroxybenzyl)-1H-pyrazol-4-yl]pyridine-2-carboxylic acid] the figure was 0.115 µM.
